Experimental data: paper PMC9007951, “Systematically evaluating DOTATATE and FDG as PET immuno-imaging tracers of cardiovascular inflammation” (Scientific Reports, 2022)
Where two headings read alike, the source gives them in different places. Each block holds one molecule with its values, some of them ahead of it.

Key:
[1] = Organ biodistribution of [^68Ga]Ga-DOTATATE by ex vivo gamma counting; assay type: in vivo, New Zealand White rabbits; details: male, New Zealand White, rabbit, 190 MBq, total radioactivity, 200 min after tracer injection, median (IQR)
Method: (§1) Adopting a translational approach, the rabbit studies were performed with the [^68Ga]Ga-labeled tracer, which is already being used in the clinic. [^68Ga]Ga-DOTATATE was purchased from Advanced Accelerator Applications (AAA, Millburn, NJ, USA). To determine its pharmacokinetics, three atherosclerotic rabbits and two healthy controls were injected with approximately 190 MBq of [^68Ga]Ga-DOTATATE. Venous blood was sampled at 1, 5, 10, 15, 20, 30, 60, 120, 180, 240 and 300 min after injection through the ear vein. Samples were weighed and gamma counted. Blood half-life data were fitted using a two-phase decay non-linear regression using GraphPad Prism v8.4.3 (Supplementary Table S1). To investigate the tracer blood distribution, blood samples were centrifuged at 2000 g for 15 min at 4 °C to determine the radioactivity concentration in the plasma and cellular fractions. To analyze [^68Ga]Ga-DOTATATE biodistribution, all rabbits were euthanized after the last imaging time-point using an injection of pentobarbital 100 mg/kg and exsanguination of the portal vein. Rabbits were extensively perfused with 1000 mL of saline. Following, tissues (blood, heart, aorta, liver, kidney, skeletal muscle, small and large intestine, fat, stomach, pancreas and bladder) were harvested, weighed and gamma counted.

[2] = Blood half-life of [^68Ga]Ga-DOTATATE, gamma counting of venous blood, two-phase decay fit; assay type: in vivo, New Zealand White rabbits
Method: as §1

[3] = [^64Cu]Cu-DOTATATE distribution in blood fractions (plasma vs cells); assay type: in vivo, mice; details: 120 min after radiotracer injection, mean ± SEM, N = 5
Method: Wild-type and atherosclerotic animals were injected with approximately 1.85 MBq of [^64Cu]Cu-DOTATATE and euthanized at either 1, 5, 15, 30, 60 or 120 min after injection (Supplementary Fig. S1A) to evaluate the tracer’s biodistribution. After euthanasia, an insulin syringe was used to collect blood samples from the right ventricle. Blood samples were used for the establishment of pharmacokinetics profile. Mice were then perfused with 20 mL of phosphate-buffered saline (PBS) and tissues of interest (heart, aorta, bone marrow, spleen, liver, stomach, bladder, kidneys, intestines, lungs, adrenal gland, muscles and pancreas) were harvested. Tissues were blotted for gamma counting on a Wizard2 2480 automatic gamma counter (Perkin Elmer, Waltham, MA). Values were corrected for decay and normalized to tissue weight to express radioactivity concentration as percentage injected dose per gram (%ID/g). […] To investigate the tracer’s distribution within different blood compartments, after gamma counting, 100 μL of blood were spun down at 2000 g for 15 min at 4 °C. Plasma (supernatant) and cells (pellet) were gamma counted and expressed as percentage of total activity. […] Percentage of activity in mononuclear and polynuclear cells was calculated.

- tissue uptake at 200 min ([1]; abdominal aorta, iv, male athero4mo rabbits, N = 9, read-out: Tissue radioactivity, abdominal aorta): 0.017 %ID/g
- tissue uptake at 200 min ([1]; abdominal aorta, iv, male control rabbits, N = 6, read-out: Tissue radioactivity, abdominal aorta): 0.006 %ID/g
- tissue uptake at 200 min ([1]; adrenal gland, iv, male athero4mo rabbits, N = 9, read-out: Tissue radioactivity, adrenal gland): 0.012 %ID/g
- tissue uptake at 200 min ([1]; adrenal gland, iv, male control rabbits, N = 6, read-out: Tissue radioactivity, adrenal gland): 0.003 %ID/g
- tissue uptake at 200 min ([1]; bladder, intravenous, male athero4mo rabbits, N = 9, read-out: Tissue radioactivity, bladder): 0.075 %ID/g
- tissue uptake at 200 min ([1]; bladder, intravenous, male control rabbits, N = 6, read-out: Tissue radioactivity, bladder): 0.053 %ID/g
- tissue uptake at 200 min ([1]; bone marrow, intravenous, male athero4mo rabbits, N = 9, read-out: Tissue radioactivity, bone marrow): 0.006 %ID/g
- tissue uptake at 200 min ([1]; bone marrow, intravenous, male control rabbits, N = 6, read-out: Tissue radioactivity, bone marrow): 0.003 %ID/g
- tissue uptake at 200 min ([1]; fat, intravenous, male athero4mo rabbits, N = 9, read-out: Tissue radioactivity, fat): 0.002 %ID/g
- tissue uptake at 200 min ([1]; heart, iv, male athero4mo rabbits, N = 9, read-out: Tissue radioactivity, heart): 0.006 %ID/g
- tissue uptake at 200 min ([1]; heart, iv, male control rabbits, N = 6, read-out: Tissue radioactivity, heart): 0.003 %ID/g
- tissue uptake at 200 min ([1]; kidneys, iv, male athero4mo rabbits, N = 9, read-out: Tissue radioactivity, kidneys): 0.157 %ID/g
- tissue uptake at 200 min ([1]; kidneys, iv, male control rabbits, N = 6, read-out: Tissue radioactivity, kidneys): 0.128 %ID/g
- tissue uptake at 200 min ([1]; large intestine, iv, male athero4mo rabbits, N = 9, read-out: Tissue radioactivity, large intestine): 0.01 %ID/g
- tissue uptake at 200 min ([1]; large intestine, iv, male control rabbits, N = 6, read-out: Tissue radioactivity, large intestine): 0.005 %ID/g
- tissue uptake at 200 min ([1]; liver, intravenous, male athero4mo rabbits, N = 9, read-out: Tissue radioactivity, liver): 0.006 %ID/g
- tissue uptake at 200 min ([1]; lungs, iv, male athero4mo rabbits, N = 9, read-out: Tissue radioactivity, lungs): 0.015 %ID/g
- tissue uptake at 200 min ([1]; lungs, iv, male control rabbits, N = 6, read-out: Tissue radioactivity, lungs): 0.005 %ID/g
- tissue uptake at 200 min ([1]; lymph node, iv, male athero4mo rabbits, N = 9, read-out: Tissue radioactivity, lymph node): 0.013 %ID/g
- tissue uptake at 200 min ([1]; lymph node, iv, male control rabbits, N = 6, read-out: Tissue radioactivity, lymph node): 0.005 %ID/g
- tissue uptake at 200 min ([1]; muscle, iv, male athero4mo rabbits, N = 9, read-out: Tissue radioactivity, muscle): 0.003 %ID/g
- tissue uptake at 200 min ([1]; muscle, iv, male control rabbits, N = 6, read-out: Tissue radioactivity, muscle): 0.001 %ID/g
- tissue uptake at 200 min ([1]; pancreas, intravenous, male control rabbits, N = 6, read-out: Tissue radioactivity, pancreas): 0.005 %ID/g
- tissue uptake at 200 min ([1]; small intestine, iv, male athero4mo rabbits, N = 9, read-out: Tissue radioactivity, small intestine): 0.021 %ID/g
- tissue uptake at 200 min ([1]; small intestine, iv, male control rabbits, N = 6, read-out: Tissue radioactivity, small intestine): 0.025 %ID/g
- tissue uptake at 200 min ([1]; spleen, intravenous, male athero4mo rabbits, N = 9, read-out: Tissue radioactivity, spleen): 0.012 %ID/g
- tissue uptake at 200 min ([1]; spleen, intravenous, male control rabbits, N = 6, read-out: Tissue radioactivity, spleen): 0.015 %ID/g
- tissue uptake at 200 min ([1]; stomach, intravenous, male athero4mo rabbits, N = 9, read-out: Tissue radioactivity, stomach): 0.053 %ID/g
- tissue uptake at 200 min ([1]; thoracic aorta, iv, male athero4mo rabbits, N = 9, read-out: Tissue radioactivity, thoracic aorta): 0.015 %ID/g
- tissue uptake at 200 min ([1]; thoracic aorta, iv, male control rabbits, N = 6, read-out: Tissue radioactivity, thoracic aorta): 0.004 %ID/g
- %fast ([2]; athero4mo rabbits, N = 3): 53.17%
- %slow ([2]; athero4mo rabbits, N = 3): 46.83%
- Weighed t1/2 (weighted half-life) ([2]; athero4mo rabbits, N = 3): 53.66 min
- t1/2 fast ([2]; athero4mo rabbits, N = 3): 19.17 min
- t1/2 slow ([2]; athero4mo rabbits, N = 3): 92.82 min
- %fast ([2]; control rabbits, N = 2): 39.7%
- %slow ([2]; control rabbits, N = 2): 60.3%
- Weighed t1/2 (weighted half-life) ([2]; control rabbits, N = 2): 21.17 min
- t1/2 fast ([2]; control rabbits, N = 2): 3.419 min
- t1/2 slow ([2]; control rabbits, N = 2): 32.86 min
Compound: C[C@@H](O)[C@H](NC(=O)[C@@H]1CSSC[C@H](NC(=O)[C@@H](Cc2ccccc2)NC(=O)CN2CCN(CC(=O)O)CCN(CC(=O)O)CCN(CC(=O)O)CC2)C(=O)N[C@@H](Cc2ccc(O)cc2)C(=O)N[C@H](Cc2c[nH]c3ccccc23)C(=O)N[C@@H](CCCCN)C(=O)N[C@@H]([C@@H](C)O)C(=O)N1)C(=O)O [[^68Ga]Ga-DOTATATE, metal not drawn]

- blood radioactivity contained in plasma ([3]; atherosclerotic Apoe^−/− mice): 88.7 ± 0.9%
- blood radioactivity contained in plasma ([3]; control C57Bl/6 mice): 83.4 ± 0.6%
Compound: C[C@@H](O)[C@H](NC(=O)[C@@H]1CSSC[C@H](NC(=O)[C@@H](Cc2ccccc2)NC(=O)CN2CCN(CC(=O)O)CCN(CC(=O)O)CCN(CC(=O)O)CC2)C(=O)N[C@@H](Cc2ccc(O)cc2)C(=O)N[C@H](Cc2c[nH]c3ccccc23)C(=O)N[C@@H](CCCCN)C(=O)N[C@@H]([C@@H](C)O)C(=O)N1)C(=O)O [[^64Cu]Cu-DOTATATE, metal not drawn]
